The test system of data set [1] is Salmonella typhimurium LT2 strain SL 696. The data set can be described thus: MIC of antibiotics in the presence of polymyxin nonapeptide, microtiter plate, S. typhimurium. The class given is cell-based. As to conditions: for minimum inhibitory concentration (MIC) of the antibiotic: 18 h; for factor by which PMBN sensitized the strain to the antibiotic: S. typhimurium strain SL 696, from Table 1; for MIC of fusidic acid: S. typhimurium. Here is the method: (§1) Methods. Smooth Salmonella typhimurium LT2 strain SL 696 (Wilkinson et al 1972 J. Gen. Microbiol. 70,527) was used as indicator organism. It was grown in Luria broth (Miller 1972. Experience in molecular genetics, Cold Spring Harbor Laboratory, New York) at 37° C. in a rotary shaker (220 rpm) into early logarithmic growth phase (Klett 40 units, Klett-Summerson colorimeter, red filter) washed with 0.9% NaCl and resuspended in 0.9% NaCl (final optical density 120 Klett units corresponding to approx. 10^9 cells/ml).
(§2) Erythromycin ethylsuccinate stock solution was prepared by dissolving 5.5 mg of erythromycin […] with 2 ml of 96% ethanol whereafter deionized water was added to a final volume of 5.5 ml. Other antibiotics were readily dissolved in deionized water.
(§3) Experimental procedure: Davis minimal growth medium (Sanderson et al, 1972, Bact. Rev. 36,608) containing glucose (1 g/l), casaminoacids (1 g/l. Difco), tryptophan (20 mg/l), and increasing amounts of a particular antibiotic was inoculated with 10^4 cells per ml of a fresh suspension of indicator bacteria. Aliquots (200 μl) of this inoculated medium were pipetted in wells of a microtiter plate (Titertek, CAT NO. 76-213-05, Flow Laboratories, United States). Each well already contained increasing amounts of the particular polycationic agent in 30 μl of 0.9% NaCl. The plates were sealed with adhesive tape and incubated at 37° C. for 18 h.
(§4) Methods. The known compound, polymyxin E nonapeptide (colistin E nonapeptide, Japanese patent specification Nos. 4178/1971 and 51355/1972) having the following formula: [drawing 5] where leu is leucine, thr is threonine, and dab is diaminobutyric acid, was prepared from polymyxin E (colistin) using an enzymatic ficin treatment as described by Chihara et al (Agr. Biol. Chem. 37,2455, 1973).

For data set [2], the system named is E. coli strain IH 3080 (018:K1). The data set can be described thus: MIC of antibiotics in the presence of polymyxin nonapeptide, microtiter plate, E. coli. In kind it is cell-based. The conditions noted are these: for factor by which PMBN sensitized the strain to the antibiotic: E. coli 018:K1 strain IH 3080, from Table 2; for MIC of the antibiotic: E. coli IH 3080. Here is the method: as §1, §2, §3
Methods. The methods were those presented in Example 3 except that E. coli was used as the test organism. The E. coli strain was IH 3080 (018:K1) isolated from the cerebrospinal fluid of a neonate with meningitis.
as §4

Data set [3] has the same test system. The data set can be described thus: Experimental E. coli infection in mice, PMBN combined with erythromycin. The class given is in vivo, female NMRI mice. As to conditions: for Number of dead mice: 10 mice per group. The text has this: Methods. […] The mice were followed 7 days for deaths.
In data set [4] the test system is E. coli strains IHE 3080, EH 817, IHE 11038, IHE 11055, IHE 11167. Briefly: Sensitization of E. coli strains to killing by 10% normal human serum (complement). The class given is cell-based. Here is the method:
Methods. The strains used were smooth Salmonella typhirmurium LT2 strain SL 696 (Wilkinson et al 1972 J. Gen. Microbiol. 70, 527) and the following E. coli strains isolated at the National Public Health Institute, Helsinki: IHE 3080 (018,K1), EH 817 (018,K1^- derivative of IHE 3080), IHE 11038 (018,K5), IHE 11055 (02,K1), and IHE 11167 (04,K12). Bacteria were grown in Luria broth (Miller 1972. Experiments in molecular genetics, Cold Spring Harbor Laboratory, New York) at 37° C. in a rotary shaker (220 rpm) into early logaritmic growth phase (Klett 40 units, Klett-Summerson colorimeter, red filter) washed with PBS (phosphate buffered saline, 8.0 g of NaCl, 0.2 g of KCl, 1.44 g of Na2 HPO4 x2H2 O and 0.2 g of KH2 PO4 per liter) and resuspended in PBS, (final optical density 120 Klett units corresponding to approx. 10^9 cells/ml).
Pooled normal human serum from 39 healthy blood donors was used as complement source. It was stored at -70° C. before use.
Experimental procedure: 10% NHS in PBS was inoculated with approx. 300 cells of freshly grown bacteria and pipetted in 200 μl aliquots in wells of mictrotiter plate (Titertek®, CAT NO. 76-213-05). The wells already contained increasing amounts of PMBN in 30 μl of 0.9% NaCl. […] The agar plates were incubated overnight at 37° C. and the developed colonies were counted.

For data set [5] the following is noted: Chihara et al 1973, 1974; cited from earlier work.
The subject of a further data set is mice. As to conditions: Chihara et al, Kajiwara et al; cited from earlier work.
[6] abbreviates: PMBN 0 μg/ml, S. typhimurium SL 696.
[7] abbreviates: PMBN 0.3 μg/ml, S. typhimurium SL 696.
Setting [8] is: PMBN 1 μg/ml, S. typhimurium SL 696.
[9] abbreviates: PMBN 3 μg/ml, S. typhimurium SL 696.
Setting [10] is: PMBN 10 μg/ml, S. typhimurium SL 696.
[11] abbreviates: PMBN 30 μg/ml, S. typhimurium SL 696.

“Also recorded” adds a separate entry of the source.

As to `CCOC(=O)CCC(=O)O[C@H]1[C@H](O[C@@H]2[C@@H](C)[C@H](O[C@H]3C[C@@](C)(OC)[C@@H](O)[C@H](C)O3)[C@@H](C)C(=O)O[C@H](CC)[C@@](C)(O)[C@H](O)[C@@H](C)C(=O)[C@H](C)C[C@@]2(C)O)O[C@H](C)C[C@@H]1N(C)C` [Erythromycin, erythromycin ethylsuccinate], the “minimum inhibitory concentration (MIC) of the antibiotic” value (shortened to “minimum inhibitory concentration (MIC)”) in data set [1] (setting [6]) was not below 100; in data set [1] (setting [7]), 30; in data set [1] (setting [8]), 10; in data set [1] (setting [9]), 10; in data set [1] (setting [10]), 3; in data set [1] (setting [11]), 3. Besides, the “factor by which PMBN sensitized the strain to the antibiotic” value (“factor … to the antibiotic” below) is given as not below 30 times in data set [1] and not below 100 times in data set [2]. The MIC of the antibiotic is 30 µg/mL in data set [2] (PMBN 0 μg/ml); 1 µg/mL in data set [2] (PMBN 0.3 μg/ml); 1 µg/mL in data set [2] (PMBN 1 μg/ml); 1 µg/mL in data set [2] (PMBN 3 μg/ml); 1 µg/mL in data set [2] (PMBN 10 μg/ml). For the same compound, the “Number of dead mice” value in data set [3] (day 1 after infection, erythromycin 10 mg/kg i.p., PMBN 10 mg/kg s.c.) was determined as 7; in data set [3] (day 2 after infection), 8; in data set [3] (day 3 after infection) it was 9; in data set [3] (day 4 after infection), 9; in data set [3] (day 5 after infection), 9; in data set [3] (day 6 after infection), 9. Further, in data set [3] (day 7 after infection), the “Number of dead mice” value is given as 9. In data set [3] (mice, erythromycin 10 mg/kg, PMBN 10 mg/kg), the “therapeutic action against the E. coli infection” value is reported as “without any therapeutic action”.
On to `CC(=O)O[C@H]1C[C@@]2(C)[C@@H](C[C@@H](O)[C@H]3[C@@]4(C)CC[C@@H](O)[C@@H](C)[C@@H]4CC[C@@]32C)/C1=C(\CCC=C(C)C)C(=O)O` [Fusidic acid, fusidic acid], for which the “minimum inhibitory concentration (MIC)” value in data set [1] (setting [6]) is listed as 300; in data set [1] (setting [7]) it was 100; in data set [1] (setting [8]) it was 30; in data set [1] (setting [9]), 30; in data set [1] (setting [10]) it was 10; in data set [1] (setting [11]), not below 3. Besides, the “MIC of fusidic acid” value in data set [1] (PMEN 0 μg/ml) came out at 300; in data set [1] (PMEN 0.3 μg/ml), 100; in data set [1] (PMEN 1.0 μg/ml), 30; in data set [1] (PMEN 3.0 μg/ml), 10; in data set [1] (PMEN 10 μg/ml) it was 3; in data set [1] (PMEN 30 μg/ml), 1. For the same compound, the “MIC of fusidic acid” value in data set [2] (PMEN 0 μg/ml, E. coli) stood at 100; in data set [2] (PMEN 0.3 μg/ml, E. coli) it was 10; in data set [2] (PMEN 1.0 μg/ml, E. coli), 10; in data set [2] (PMEN 3.0 μg/ml, E. coli) it was 3; in data set [2] (PMEN 10 μg/ml, E. coli) it was 3; in data set [2] (PMEN 30 μg/ml, E. coli), 1. The “factor … to the antibiotic” value in data set [1] is not below 100 times; in data set [2], 100 times. The MIC of the antibiotic in data set [2] (PMBN 0 μg/ml) turned out to be 100 µg/mL; in data set [2] (PMBN 0.3 μg/ml), 3 µg/mL; in data set [2] (PMBN 1 μg/ml), 3 µg/mL; in data set [2] (PMBN 3 μg/ml) it was 3 µg/mL; in data set [2] (PMBN 10 μg/ml), 1 µg/mL.
As for `CO[C@@H]1[C@@H](OC(N)=O)[C@@H](O)[C@H](Oc2ccc3c(O)c(NC(=O)c4ccc(O)c(CC=C(C)C)c4)c(=O)oc3c2C)OC1(C)C` [Novobiocin, novobiocin], the “minimum inhibitory concentration (MIC)” value is given as not below 100 in data set [1] (setting [6]); 10 in data set [1] (setting [7]); 3 in data set [1] (setting [8]); 3 in data set [1] (setting [9]); 1 in data set [1] (setting [10]); 1 in data set [1] (setting [11]). Further, the “factor … to the antibiotic” value in data set [1] was not below 100 times; in data set [2], 10 times. In addition, the MIC of the antibiotic in data set [2] (PMBN 0 μg/ml) stood at 30 µg/mL; in data set [2] (PMBN 0.3 μg/ml) it was 10 µg/mL; in data set [2] (PMBN 1 μg/ml) it was 10 µg/mL; in data set [2] (PMBN 3 μg/ml), 3 µg/mL; in data set [2] (PMBN 10 μg/ml), 3 µg/mL.
Regarding polymyxin B nonapeptide [PMBN], in data set [1] (S. typhimurium SL 696), the “concentration of PMBN required to sensitize the bacteria to most antibiotics by a factor of 10-30” value is 1-3 μg/ml. In addition, the “amount of PMBN sufficient to sensitize E. coli to erythromycin and fusidic acid by a factor of 30” value in data set [2] (E. coli) amounted to 0.3 µg. Besides, the “concentration of PMBN that sensitized the strains to killing by 10% NHS” value in data set [4] (E. coli strains, 10% normal human serum, 2 h) was 0.3 µg/mL. For the same compound, the “bactericidal action of serum in the presence of PMBN after inactivation of complement” value in data set [4] (complement destroyed by heat (30 min at 56° C.) or zymosan A) is reported as “the serum lost its capacity to kill bacteria; also recorded: NHS lost its bactericidal, PMBN-dependent action”.
In the case of polymyxin E nonapeptide [PMEN], the “antibacterial activity compared with colistin” value in data set [5] is given as “lack the antibacterial activity of colistin”. Moreover, the “toxicity to eukaryotes (mice) compared with parent compound colistin” value in the data set on mice is given as “significantly less toxic”.

(Values after patent US4510132A, “Compounds for use in antibacterial therapy” (priority 1982, dated 1985).)
